Experimental data from US8318812B2, “Therapeutic agents for the treatment of lymphoid malignancies” (The Ohio State University Research Foundation, priority 2006, dated 2012).

Tests used:
[1] = system: MEC, Ramos, Raji, 697 and RS4-11 B cell lines; assay: Annexin V/PI viability by flow cytometry in B cell lines; type: cell-based, Human; details: Ramos cells; okadaic acid pretreatment
Protocol: Cells: Blood was obtained from patients with B-cell CLL with informed consent under a protocol approved by the hospital internal review board. All patients examined in this series had immunophenotypically defined CLL as outlined by the modified 96 National Cancer Institute criteria. B-CLL cells were isolated from freshly donated blood using ficoll density gradient centrifugation (Ficoll-Paque Plus, Amershan Biosciences, Piscataway, N.J.). Isolated mononuclear cells were incubated in RPMI 1640 media (Gibco/Invitrogen, Carlsbad, Calif.) supplemented with 10% heat-inactivated fetal bovine serum (FBS, Hyclone Laboratories, Logan, Utah), 2 mM L-glutamine (Invitrogen, Carlsbad, Calif.), and penicillin (100 U/mL)/streptomycin (100 μg/ml) [Sigma-Aldrich, St. Louis] at 37° C. in an atmosphere of 5% CO2. Freshly isolated B-CLL cells were used in all experiments described herein. […]
Analysis of cell viability and apoptosis: The cell viability was carried out by dual staining with Annexin V conjugated to flourescein-isothyocyanate (FITC) and Propidium iodide (PI) as described previously. Briefly, 1×10^6 cells were stained with Annexin V-FITC (BD Pharmingen) and Propidium iodide (BD Pharmingen) for 15 minutes in dark and analyzed by flow cytometry using a Beckman-Coulter EPICS XL cytometer (Beckman-Coulter, Miami, Fla.). […]

PP2A [2] = assay: PP2A activity in lysates of Ramos B cell line; type: cell-based, Human
Protocol: (§1) PP2A Activity: The protein phosphatase activity of total cellular lysate was determined by measuring the generation of free PO4 from the threonine phosphopeptide using the malachite green-phosphate complex assay as described by the manufacturer (Upstate, Charlottesville, […].). Cell lysates were prepared in a low detergent lysis buffer (1% Nonidet P-40, 10 mM HEPES, 0.5M NaCl, 10% Glycerol, 1 mM PMSF, 5 mM Benzamidine, 10 μg/ml leupeptin). The phosphatase assay was performed in a PP2A-specific reaction buffer (Upstate) using 750 μM phosphopeptide substrate. After 30-min incubation at 30° C. malachite dye was added, and free phosphate was measured by optical density at 650 nm. To avoid variability among different immunoprecipitated samples, the phosphatase activities were normalized with the amount of PP2A immunoprecipitated, as detected and quantified by western blot analysis of each treatment group.
In order to determine if FTY720 induced activation of PP2A enzyme in CD19^+ B cells from CLL patients were treated with 10 uM FTY720 for 0, 1, 2, 3, 4 and 15 hrs and the PP2A activity in the lysates were quantified using a functional assay following immunoprecipitation of PP2A enzyme. As reported previously in other systems, FTY720 induced a consistent 2-3 fold increase in PP2A activation with the peak response observed at 4 hour post treatment (FIG. 6a). […]

[3] = system: CD19+ B cells from CLL patients; type: cell-based; details: CLL cells
Protocol: Cells: Blood was obtained from patients with B-cell CLL with informed consent under a protocol approved by the hospital internal review board. All patients examined in this series had immunophenotypically defined CLL as outlined by the modified 96 National Cancer Institute criteria. B-CLL cells were isolated from freshly donated blood using ficoll density gradient centrifugation (Ficoll-Paque Plus, Amershan Biosciences, Piscataway, N.J.). Isolated mononuclear cells were incubated in RPMI 1640 media (Gibco/Invitrogen, Carlsbad, Calif.) supplemented with 10% heat-inactivated fetal bovine serum (FBS, Hyclone Laboratories, Logan, Utah), 2 mM L-glutamine (Invitrogen, Carlsbad, Calif.), and penicillin (100 U/mL)/streptomycin (100 μg/ml) [Sigma-Aldrich, St. Louis] at 37° C. in an atmosphere of 5% CO2. Freshly isolated B-CLL cells were used in all experiments described herein. Enriched B-lymphocyte fractions were prepared by using MACS negative selection kit by Miltenyi Biotech (Auburn, Calif.) or by “Rosette-Sep” kit from Stem Cell Technologies (Vancouver, British Columbia, Canada) according to the manufacturer's instructions. Human B-lymphocyte cell lines Raji and Ramos were obtained from ATCC (Manassas, Va.) and the MEC cells were obtained from German cell line bank (Braunschweig, Germany). The 697-neo and 697-Bcl-2 cell lines were kind gift from Dr. John Reed (Burnham Institute, La Jolla, Calif.). Cells were cultured at 37° C. in an atmosphere of 5% CO2 in RPMI 1640 media (Gibco/Invitrogen, Carlsbad, Calif.) supplemented with 10% fetal bovine serum (Gibco/Invitrogen).
Analysis of cell viability and apoptosis: The cell viability was carried out by dual staining with Annexin V conjugated to flourescein-isothyocyanate (FITC) and Propidium iodide (PI) as described previously. Briefly, 1×10^6 cells were stained with Annexin V-FITC (BD Pharmingen) and Propidium iodide (BD Pharmingen) for 15 minutes in dark and analyzed by flow cytometry using a Beckman-Coulter EPICS XL cytometer (Beckman-Coulter, Miami, Fla.). Apoptotic cells were identified as Annexin V and/or PI positive cells. Cells excluding both FITC and PI were considered to be viable. The Annexin V^−/PI^− cells are represented as % live cells normalized to untreated controls.
B-CLL cells are reported to be resistant to apoptosis in-vivo. To systematically analyze the effects of FTY720 on B-CLL cells, purified CD19^+ cells from B-CLL patients were incubated with increasing concentrations of FTY720 ranging from 0, 0.5, 1, 1.5, 2.5, 5 or 10 uM. The cytotoxic effects were independently determined by flow cytometry using propidium iodide (PI) and Annexin V conjugated FITC reagents. Populations excluding both PI and Annexin V-FITC staining were considered viable. […]

PP2A [4] = assay: PP2A activity (malachite green phosphatase assay) in lysates of CLL cells; type: cell-based, Human; details: pretreatment with 5 nM okadaic acid
Protocol: as §1
In order to determine if FTY720 induced activation of PP2A enzyme in CD19^+ B cells from CLL patients were treated with 10 uM FTY720 for 0, 1, 2, 3, 4 and 15 hrs and the PP2A activity in the lysates were quantified using a functional assay following immunoprecipitation of PP2A enzyme. As reported previously in other systems, FTY720 induced a consistent 2-3 fold increase in PP2A activation with the peak response observed at 4 hour post treatment (FIG. 6a). […] Similar phenomenon was also observed in Ramos B cell line. FTY720 induced activation of PP2A in Ramos cell line as early as 3 hours and this induced PP2A activity was inhibited by okadaic acid (FIG. 7a-b).

Mino cells = assay: Annexin V/PI toxicity in Mino cells; type: cell-based, Human; details: 150 μM z-VAD-fmk
Protocol: Primary MCL cells were isolated from PBMC (with informed patient consent under a protocol approved by IRB) as described before. All the MCL patients were identified as outlined by the World Health Organization (WHO) classification. Human mantle cell lymphoma patient cell lines (Mino and Jeko) were obtained from Dr. Raymond Lai. Primary cells or MCL cell lines were incubated in RPMI 1640 media, supplemented with 10%-20% heat-inactivated fetal bovine serum, 2 mM L-glutamine and penicillin (100 U/mL)/streptomycin ([…]) at 37° C. in an atmosphere of 5% CO2. FTY720 was synthesized as previously described. Toxicity was determined by flow cytometry using Annexin-V-FITC and Propidium Iodide (PI) staining. Apoptotic cells were identified as Annexin-V+ and/or PI+ cells. Cells excluding both FITC and PI were considered viable. Western Blotting was performed as described previously using indicated antibodies. The PARP (Ab-2) and Caspase 9 antibodies were purchased from Oncogene/Calbiochem/EMD Biosciences (San Diego, Calif.). Cyclin D1, Akt, Actin, Mcl-1, p-ERK, ERK and Bcl-2 were obtained from Santa Cruz biotech (Santa Cruz, Calif.).
Several therapeutic agents, including fludarabine, chlorambucil, 2-chloro-2-deoxyadenosine and glucocorticoids, induce toxicity in B cell malignancies through activating caspases, the cysteine proteases of CED3/ICE family. Inhibition of these caspases results in abrogation of apoptosis mediated by the toxic stimuli. To determine if caspase activation is involved in FTY720-induced cytotoxicity in MCL, we pretreated Mino cells with 150 μM broad spectrum caspase inhibitor z-VAD-fmk. […] Activation of caspases results in cleavage of key cellular proteins including poly-ADP-ribose polymerase (PARP).

C=C1[C@@H](O)[C@@H]2O[C@]3(CC[C@H](/C=C/[C@@H](C)[C@@H]4CC(C)=C[C@@]5(O[C@H](C[C@@](C)(O)C(=O)O)CC[C@H]5O)O4)O3)CC[C@H]2O[C@@H]1[C@@H](O)C[C@H](C)[C@H]1O[C@@]2(CCCCO2)CC[C@H]1C [okadaic acid]
effect of okadaic acid on FTY720 induced apoptosis [1]: inhibition of FTY720 induced apoptosis | effect of okadaic acid on FTY720 induced PP2A activity (PP2A [2]): inhibited | effect of okadaic acid on FTY720 induced cellular cytotoxicity ([3]; okadaic acid pretreatment): inhibition of FTY720 induced cellular cytotoxicity | inhibition of the FTY720 induced PP2A activation (PP2A [4]): ≤ 3 fold

z-VAD-fmk
effect of z-VAD-fmk on FTY720 induced apoptosis ([3]; z-VAD-fmk 150 uM): failed to prevent FTY720 induced apoptosis | effect of z-VAD-fmk on fludarabine induced apoptosis ([3]; z-VAD-fmk 150 uM): effectively rescued fludarabine induced apoptosis | reduction in FTY720 induced apoptosis (Mino cells): ~50% | reduction in fludarabine induced apoptosis (Mino cells): ~50%
